Test results published in patent US20110237640A1, “PYRAZOLE PHENYL DERIVATIVES” (priority 2004, published 2011).

What was measured:
[1] = biological target: T1, GST-PPARα-LBD fusion protein (Homo sapiens, UniProt Q07869); assay: PPARα radioligand binding assay (SPA)
T1 construct: PPARα (aa 167 to 469); made in house; host or cells: E. coli BL21(pLysS)
T1 sequence (Q07869 167-468 limits assumed): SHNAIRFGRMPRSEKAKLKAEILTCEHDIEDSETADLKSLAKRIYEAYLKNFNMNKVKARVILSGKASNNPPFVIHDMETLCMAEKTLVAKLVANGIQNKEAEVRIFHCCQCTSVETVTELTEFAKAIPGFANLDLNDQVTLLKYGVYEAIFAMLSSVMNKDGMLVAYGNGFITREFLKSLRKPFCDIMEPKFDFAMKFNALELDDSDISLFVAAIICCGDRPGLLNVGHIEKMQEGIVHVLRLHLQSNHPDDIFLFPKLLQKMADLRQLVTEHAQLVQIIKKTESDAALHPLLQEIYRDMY
Excerpt: (§1) Full-length cDNA clones for humans PPARδ and PPARα and mouse PPARγ were obtained by RT-PCR from human adipose and mouse liver cRNA, respectively, cloned into plasmid vectors and verified by DNA sequencing. Bacterial and mammalian expression vectors were constructed to produce glutathione-s-transferase (GST) and Gal4 DNA binding domain proteins fused to the ligand binding domains (LBD) of PPARδ (aa 139 to 442), PPARγ (aa 174 to 476) and PPARα (aa 167 to 469). To accomplish this, the portions of the cloned sequences encoding the LBDs were amplified from the full-length clones by PCR and then subcloned into the plasmid vectors. Final clones were verified by DNA sequence analysis.
(§2) Induction, expression, and purification of GST-LBD fusion proteins were performed in E. coli strain BL21(pLysS) cells by standard methods (Ref: Current Protocols in Molecular Biology, Wiley Press, edited by Ausubel et al.).
(§3) PPARαreceptor binding was assayed in TKE50 (50 mM Tris-HCl, pH 8, 50 mM KCl, 2 mM EDTA, 0.1 mg/ml fatty acid-free BSA and 10 mM DTT). […] All binding assays were performed in 96 well plates and the amount of bound ligand measured on a Packard TopCount using OptiPlates (Packard). Nonspecific binding was determined in the presence of 10^−4 M unlabelled compound. […]

[2] = biological target: T2, pFA-PPARδ-LBD in BHK21 cells (Homo sapiens, UniProt Q03181); assay: Luciferase transcriptional reporter gene assay (transactivation), PPARδ; type: cell-based; details: for EC50: 24 hours with compound; for PPARδ efficacy relative to reference compound: reference PPARδ compound set to 100%
T2 construct: PPARδ (aa 139 to 442); expressed in transfected cells; host or cells: BHK21 (ATCC CCL10)
T2 sequence (Q03181 139-441 limits assumed): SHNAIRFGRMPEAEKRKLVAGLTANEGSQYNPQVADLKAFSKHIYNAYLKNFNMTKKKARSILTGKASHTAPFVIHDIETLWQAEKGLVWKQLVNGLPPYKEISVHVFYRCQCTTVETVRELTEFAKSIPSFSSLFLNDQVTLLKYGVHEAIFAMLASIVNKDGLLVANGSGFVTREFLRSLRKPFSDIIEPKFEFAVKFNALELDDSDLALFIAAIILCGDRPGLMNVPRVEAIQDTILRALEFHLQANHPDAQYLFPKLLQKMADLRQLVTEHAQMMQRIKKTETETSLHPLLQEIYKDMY
Excerpt: as §1
(§4) Baby hamster kidney cells (BHK21 ATCC CCL10) were grown in DMEM medium containing 10% FBS at 37° C. in a […]:5% CO2 atmosphere. Cells were seeded in 6 well plates at a density of 10^5 cells/well and then batch-transfected with either the pFA-PPARδ-LBD, pFA-PPARγ-LBD or pFA-PPARα-LBD expression plasmids plus a reporter plasmid (to monitor transfection efficiency). […] Six hours following transfection, the cells were harvested by trypsinization and seeded in 96 well plates at a density of 10^4 cells/well. After 24 hours the medium was removed and replaced with 100 ul of phenol red-free medium containing the corresponding test compounds or control ligands (at a final DMSO concentration of 0.1%). Following incubation of the cells for 24 hours with compounds, 50 μl of the supernatant was discarded and then 50 μl of Luciferase Constant—Light Reagent (Roche Molecular Biochemicals) was added to lyse the cells and initiate the luciferase reaction. Luminescence for luciferase was measured in a Packard TopCount. Transcriptional activation in the presence of a test substance was expressed as fold-activation over cells incubated in the absence of the substance. The signals were normalized against plate-specific controls (DMSO alone) and the fold-stimulation of luciferase activity observed with specific and selective PPARα((2(S)-2-(2-benzoyl-phenylamino)-3-{4-[2-(5-methyl-2-phenyl-oxazol-4-yl)-ethoxy]-phenyl}-propionic acid), PPARγ (Rosiglitazone) and PPARδ ({2-methyl-4-[4-methyl-2-(4-trifluoromethyl-phenyl)-thiazol-5-ylmethylsulfanyl]-phenoxy}-acetic acid) reference compounds was set to 100%. EC50 values were calculated using the XLfit program (ID Business Solutions Ltd. UK).

[3] = biological target: T3, PPARδ receptor (GST-PPAR-LBD fusion protein) (Homo sapiens, UniProt Q03181); assay: PPARδ radioligand binding assay (SPA)
T3 construct: PPARδ (aa 139 to 442); made in house; host or cells: E. coli BL21(pLysS)
T3 sequence (Q03181 139-441 limits assumed): T2 sequence (Q03181 139-441 limits assumed)
Excerpt: as §1, §2
PPARδ receptor binding was assayed in HNM10 (50 mM Hepes, pH 7.4, 10 mM NaCl, 5 mM MgCl2, 0.15 mg/ml fatty acid-free BSA and 15 mM DTT). […] Radioligand was added and the reaction incubated at RT for 1 h and scintillation proximity counting performed in the presence of test compounds was determined. All binding assays were performed in 96 well plates and the amount of bound ligand was measured on a Packard TopCount using OptiPlates (Packard). […]

[4] = biological target: T4, GST-PPARγ-LBD fusion protein (Mus musculus, UniProt P37238); assay: PPARγ radioligand binding assay (SPA)
T4 construct: PPARγ (aa 174 to 476); made in house; host or cells: E. coli BL21(pLysS)
T4 sequence (P37238 204-505): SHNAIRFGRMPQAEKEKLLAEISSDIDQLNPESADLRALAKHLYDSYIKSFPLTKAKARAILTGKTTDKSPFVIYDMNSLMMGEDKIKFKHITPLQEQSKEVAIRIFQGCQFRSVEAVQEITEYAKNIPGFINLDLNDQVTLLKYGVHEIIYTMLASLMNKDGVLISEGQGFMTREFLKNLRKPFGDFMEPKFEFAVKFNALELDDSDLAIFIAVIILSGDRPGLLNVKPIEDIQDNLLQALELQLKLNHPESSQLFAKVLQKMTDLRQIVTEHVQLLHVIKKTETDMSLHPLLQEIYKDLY
Excerpt: as §1, §2
as §3, with “PPARγ receptor” for “PPARαreceptor”

[5] = biological target: T5, pFA-PPARα-LBD in BHK21 cells (Homo sapiens, UniProt Q07869); assay: Luciferase transcriptional reporter gene assay (transactivation), PPARα; type: cell-based; details: for EC50: 24 hours with compound; for PPARα maximal activation (% of reference compound): reference PPARα compound set to 100%
T5 construct: PPARα (aa 167 to 469); expressed in transfected cells; host or cells: BHK21 (ATCC CCL10)
T5 sequence (Q07869 167-468 limits assumed): T1 sequence (Q07869 167-468 limits assumed)
Excerpt: as §1, §4

Row | IC50 [1] [nM] | EC50 [2] [nM] | PPARδ efficacy relative to reference compound [2] [%] | IC50 [3] [nM] | IC50 [4] [µM] | EC50 [5] [nM] | PPARα maximal activation (% of reference compound) [5] [%] | Compound
1 | 166 | 200 | 59 | 144 | ≥ 10 | 380 | 100 | Cc1cc(OCc2cc(-c3ccc(OC(F)(F)F)cc3)nn2C)ccc1OC(C)(C)C(=O)O [Example 1, 2-Methyl-2-{2-methyl-4-[2-methyl-5-(4-trifluoromethoxy-phenyl)-2H-pyrazol-3-ylmethoxy]-phenoxy}-propionic acid]
2 | 212 | 96 | 140 | 222 | ≥ 10 | 160 | 120 | Cc1cc(OCc2cc(-c3ccc(OC(F)(F)F)cc3)nn2CC(F)(F)F)ccc1OC(C)(C)C(=O)O [Example 6, 2-Methyl-2-{2-methyl-4-[2-(2,2,2-trifluoro-ethyl)-5-(4-trifluoromethoxy-phenyl)-2H-pyrazol-3-ylmethoxy]-phenoxy}-propionic acid]
